#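 Interpolation was linear, between the two tested concentrations surrounding the appropriate level; five concentrations were tested over 48 hours in 96-well plates. At the GI50, growth is halved.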 Active and inactive are the calls of the source. Cut-off read from the data, not from the text of the source: active = GI50 up to about 1.1 µM and inactive = higher.
# Columns and labels:
# Test in all cases: inhibition of tumour cell growth, NCI panel, 48 h
# MDA-MB-231 = test system: MDA-MB-231
# KM12 = test system: KM12
# SF-539 = test system: SF-539
# LOX IMVI = test system: LOX IMVI
# HCT-15 = test system: HCT-15
# SF-295 = test system: SF-295
# A498 = test system: A498
# OVCAR-5 = test system: OVCAR-5
# UACC-62 = test system: UACC-62
# NCI-H522 = test system: NCI-H522
# RPMI-8226 = test system: RPMI-8226
# MOLT-4 = test system: MOLT-4
# BT-549 = test system: BT-549
# NCI-H23 = test system: NCI-H23
# RXF 393 = test system: RXF 393
# HL-60 = test system: HL-60
# ACHN = test system: ACHN
# MDA-N = test system: MDA-N
# HCC 2998 = test system: HCC 2998
# NCI-H226 = test system: NCI-H226
SMILES,GI50 (MDA-MB-231),GI50 (KM12),GI50 (SF-539),GI50 (LOX IMVI),GI50 (HCT-15) [µM],GI50 (SF-295),GI50 (A498),GI50 (OVCAR-5),GI50 (UACC-62),GI50 (NCI-H522),GI50 (RPMI-8226),GI50 (MOLT-4),GI50 (BT-549),GI50 (NCI-H23),GI50 (RXF 393),GI50 (HL-60),GI50 (ACHN),GI50 (MDA-N),GI50 (HCC 2998),GI50 (NCI-H226)
O=C(c1ccc(Cl)cc1)N(C(=S)OCCOc1ccccc1)c1ccccc1,23.1 µM (inactive),19.1 µM (inactive),18.9 µM (inactive),17.4 µM (inactive),19.3,27.6 µM (inactive),14.9 µM (inactive),17 µM (inactive),16.3 µM (inactive),19.1 µM (inactive),18.1 µM (inactive),22.4 µM (inactive),20.2 µM (inactive),18.1 µM (inactive),18.6 µM (inactive),18.6 µM (inactive),20.3 µM (inactive),16.6 µM (inactive),19.5 µM (inactive),–
Cc1c(C(=O)c2ccccc2)[n+]([O-])c2cc(Cl)c(Cl)cc2[n+]1[O-],11.1 µM (inactive),8.65 µM (inactive),17.2 µM (inactive),3.72 µM (inactive),1.99,14.9 µM (inactive),19.6 µM (inactive),17.9 µM (inactive),11.4 µM (inactive),–,4.7 µM (inactive),2.73 µM (inactive),16.9 µM (inactive),2.39 µM (inactive),6.08 µM (inactive),2.04 µM (inactive),14.3 µM (inactive),12.3 µM (inactive),1.56 µM (inactive),2.51 µM (inactive)
CCCCCCN1CCc2c(C)c(C#N)c3nc4ccccc4n3c21,5.73 µM (inactive),–,> 100 µM (inactive),22.2 µM (inactive),27.6,> 100 µM (inactive),76.6 µM (inactive),> 100 µM (inactive),30.1 µM (inactive),31.4 µM (inactive),–,–,65.3 µM (inactive),45 µM (inactive),20.7 µM (inactive),11.7 µM (inactive),> 100 µM (inactive),22.7 µM (inactive),49.3 µM (inactive),> 100 µM (inactive)
CC1=C(O)C(=O)C[C@]2(C)[C@H]3CC=C4[C@@H]5CC(C)(C)CC[C@@H]5C(=O)[C@H](O)[C@@]4(C)[C@]3(C)CC[C@@H]12,> 50 µM (inactive),> 50 µM (inactive),2.8 µM (inactive),–,> 50,37.8 µM (inactive),> 50 µM (inactive),> 50 µM (inactive),> 50 µM (inactive),16.6 µM (inactive),42.5 µM (inactive),> 50 µM (inactive),> 50 µM (inactive),> 50 µM (inactive),10 µM (inactive),> 50 µM (inactive),41.4 µM (inactive),47.3 µM (inactive),20.4 µM (inactive),> 50 µM (inactive)
CCOC(=O)C(NC(=O)c1ccccc1)(N1CCN(c2cc3c(cc2F)c(=O)c(C(=O)O)cn3C2CC2)CC1)C(F)(F)F (stereo not drawn),12.9 µM (inactive),16.8 µM (inactive),15.2 µM (inactive),–,–,27 µM (inactive),28.1 µM (inactive),20.4 µM (inactive),22 µM (inactive),–,23.1 µM (inactive),14.1 µM (inactive),21.8 µM (inactive),15.1 µM (inactive),19.5 µM (inactive),14.4 µM (inactive),23.9 µM (inactive),21.1 µM (inactive),22.5 µM (inactive),21.2 µM (inactive)
Nc1ncnc2c1ccn2C/C=C/CO,> 100 µM (inactive),> 100 µM (inactive),> 100 µM (inactive),> 100 µM (inactive),> 100,> 100 µM (inactive),> 100 µM (inactive),> 100 µM (inactive),> 100 µM (inactive),> 100 µM (inactive),> 100 µM (inactive),> 100 µM (inactive),> 100 µM (inactive),> 100 µM (inactive),> 100 µM (inactive),> 100 µM (inactive),> 100 µM (inactive),> 100 µM (inactive),> 100 µM (inactive),–
CN1C=Cc2nccc3cc4c(c1c23)OCO4,3.08 µM (inactive),2.59 µM (inactive),–,6.25 µM (inactive),7.59,1.86 µM (inactive),4 µM (inactive),6.61 µM (inactive),1.36 µM (inactive),0.776 µM (active),1.04 µM (active),0.647 µM (active),1.87 µM (inactive),2.1 µM (inactive),0.879 µM (active),> 20.3 µM (inactive),1.56 µM (inactive),2.27 µM (inactive),4.03 µM (inactive),2.83 µM (inactive)
O=C1c2ccccc2C2(c3ccc(Cl)cc3)N[C@@H]3CCCC[C@@H]3N12 (stereo partly drawn),> 100 µM (inactive),> 100 µM (inactive),> 100 µM (inactive),> 100 µM (inactive),> 100,> 100 µM (inactive),> 100 µM (inactive),> 100 µM (inactive),> 100 µM (inactive),–,> 100 µM (inactive),> 100 µM (inactive),> 100 µM (inactive),> 100 µM (inactive),> 100 µM (inactive),50.1 µM (inactive),> 100 µM (inactive),> 100 µM (inactive),> 100 µM (inactive),> 100 µM (inactive)
CN(C(=O)Cc1cc(Cl)c(Cl)cc1NC(=O)CN)[C@H]1CCCC[C@@H]1N1CCCC1,23.3 µM (inactive),47.4 µM (inactive),–,18.3 µM (inactive),37,24.2 µM (inactive),20.2 µM (inactive),> 100 µM (inactive),16 µM (inactive),–,30.8 µM (inactive),> 100 µM (inactive),35.1 µM (inactive),> 100 µM (inactive),68.7 µM (inactive),19.1 µM (inactive),79.8 µM (inactive),15.3 µM (inactive),16.6 µM (inactive),–
CC(NC(=O)C1(N)CCCC1)C(=O)O (stereo not drawn),> 100 µM (inactive),> 100 µM (inactive),–,> 100 µM (inactive),> 100,> 100 µM (inactive),> 100 µM (inactive),> 100 µM (inactive),> 100 µM (inactive),> 100 µM (inactive),> 100 µM (inactive),> 100 µM (inactive),> 100 µM (inactive),> 100 µM (inactive),> 100 µM (inactive),> 100 µM (inactive),> 100 µM (inactive),> 100 µM (inactive),> 100 µM (inactive),> 100 µM (inactive)
CN1C/C(=C\c2cccs2)C2=NN(c3ccccc3)C(c3cccs3)C2C1 (stereo not drawn),21.9 µM (inactive),4.35 µM (inactive),17.4 µM (inactive),5.08 µM (inactive),3.78,4.95 µM (inactive),> 27.3 µM (inactive),> 100 µM (inactive),> 100 µM (inactive),3.43 µM (inactive),3.59 µM (inactive),3.4 µM (inactive),17.9 µM (inactive),> 100 µM (inactive),–,1.59 µM (inactive),> 34 µM (inactive),1.59 µM (inactive),6.21 µM (inactive),> 100 µM (inactive)

# — ChEMBL document CHEMBL1201862, “PubChem BioAssay data set” (2004)
